The results in this text go back to ChEMBL document CHEMBL1158648, “The Lignans of Polygala polygama (Polygalaceae): Deoxypodophyllotoxin and Three New Lignan Lactones” (1979).

The subject of this assay is P388. Put plainly: In vivo antitumor activity against mouse P388 cells at 40 mg/kg. The assay is classed as functional.

For the compound `COc1ccc2c(c1OC)[C@@H](c1ccc3c(c1)OCO3)C1=C(COC1=O)C2`, the T/C turned out to be 144%.
The value for `COc1cc([C@@H]2c3cc4c(cc3[C@H](O)[C@H]3COC(=O)[C@H]23)OCO4)cc(OC)c1O` was 144%; that for `O=C1OC[C@@H]2Cc3cc4c(cc3[C@@H](c3ccc5c(c3)OCO5)[C@@H]12)OCO4` [POLYGAMAIN] was 144%.
For `COc1ccc2c(c1OC)[C@@H](c1ccc3c(c1)OCO3)[C@H]1C(=O)OC[C@@H]1C2` [POLYGAMATIN], the T/C is reported as 144%.
`COc1cc([C@@H]2c3cc4c(cc3C[C@H]3COC(=O)[C@@H]32)OCO4)cc(OC)c1OC` [DESOXYPODOPHYLLOTOXIN]: the T/C is recorded as 144%.
As for `COc1cc([C@@H]2c3cc4c(cc3[C@H](O)[C@H]3COC(=O)[C@H]23)OCO4)cc(OC)c1OC` [PODOFILOX], the T/C worked out at 144%.
